Source: patent US10464906B2, “Crystalline forms of a histone deacetylase inhibitor” (Acetylon Pharmaceuticals, Inc., priority 2015, dated 2019)
Values after ≈ are worked out from the molar mass of the structure shown. “Also recorded” adds a separate entry of the source. Like-named read-outs stand apart in the source and are kept apart here.

Assays:
Type in all cases: physicochemical
[1] = Solubility assessment of Form I, gravimetric, slurried 48 h in solvents/solvent mixtures; conditions: thermodynamic from solid
Method: The Solubility of Form I was measured gravimetrically in 15 different solvents and solvent mixtures at 15 and 45° C. About 75 mg of the compound was dispensed in 10 volumes (750 μL) of the solvent/solvent mixture and slurried for 48 h.
The vials were centrifuged. The supernatant was collected and left for slow evaporation under vacuum at 45° C. The solids obtained after evaporation were used to determine the solubility of Form I and analyzed by XRPD for any new forms.

[2] = Dynamic vapor sorption (DVS) with post-DVS XRPD
Method: Samples were analyzed using an Aquadyne DVS-2 gravimetric water sorption analyzer. The relative humidity was adjusted between 2-95% and the weight of the sample was continuously monitored and recorded with respect to the relative humidity and time.
The material was subjected under Dynamic Vapor Sorption (DVS, FIG. 6).

[3] = Stability of crystalline forms under dry (vacuum, 45° C.) and humid (RH >95%) conditions, XRPD; conditions: dried under vacuum at 45° C.
Method: For dry conditions, the sample was dried under vacuum at 45° C. followed by XRPD analysis. Later the sample was subjected to high humidity conditions (RH >95%) followed by XRPD analysis.
The MeOH and DCM solvates of Compound (I) were dried on XRPD plates under vacuum at 45° C. and were analyzed by XRPD the following day.
Pattern E was dried at 45° C. under vacuum overnight and analyzed by XRPD. The following day, it was subjected to high humidity conditions (>95%) and later analyzed by XRPD the next day. […] FIG. 26 illustrates the XRPD comparison of dried and humid samples with Compound (I), Form I, Pattern A.

[4] = Solid form stability test (up to 7 days) under high humidity, XRPD
Method: In one aspect, provided herein is 2-((2-chlorophenyl)(phenyl)amino)-N-(7-(hydroxyamino)-7-oxoheptyl)pyrimidine-5-carboxamide of Form I (referred to herein as “Form I”). Form I (of Compound (I)) was observed under a polarized microscope and its crystalline nature was determined by using X-ray powder diffraction (XRPD) and Pattern A was assigned to it for identification (See Example 3). The chemical structure of the material was confirmed by proton-nuclear magnetic resonance (^1H-NMR) and the thermal characterization of the material was carried out by differential scanning calorimetry (DSC) and thermal gravimetric analysis (TGA) (see Examples 2 and 3). […] The XRPD analysis of this form including peak identification is found in Example 11 (See FIG. 40).

[5] = Dynamic vapor sorption (DVS) with post-DVS XRPD; conditions: relative humidity between 0-95%

Work on O=C(CCCCCCNC(=O)c1cnc(N(c2ccccc2)c2ccccc2Cl)nc1)NO [Form I, 2-((2-chlorophenyl)(phenyl)amino)-N-(7-(hydroxyamino)-7-oxoheptyl)pyrimidine-5-carboxamide] yielded a solubility at 48 h ([1]; aqueous with cosolvent or surfactant or cyclodextrin, EtOH:H2O (1:1), temperature not stated, read-out: Solubility (moderately soluble)) of 10 to 55 mg/mL (≈ 21.4 to 118 mM), a solubility at 48 h ([1]; aqueous with cosolvent or surfactant or cyclodextrin, acetone:H2O (1:1), temperature not stated, read-out: Solubility (moderately soluble)) of 10 to 55 mg/mL (≈ 21.4 to 118 mM) and a solubility at 48 h ([1]; organic solvent or mixture, Acetone, 15° C., read-out: Solubility) of 2 mg/mL (≈ 4.27 mM). It also gave a solubility at 48 h ([1]; organic solvent or mixture, Acetone, 45° C., read-out: Solubility) of 11 mg/mL (≈ 23.5 mM), a solubility at 48 h ([1]; organic solvent or mixture, Acetone:H2O (95:5), 15° C., read-out: Solubility) of 21 mg/mL (≈ 44.9 mM) and a solubility at 48 h ([1]; organic solvent or mixture, Acetone:H2O (95:5), 45° C., read-out: Solubility) of 48 mg/mL (≈ 103 mM). For the same compound, the solubility at 48 h ([1]; organic solvent or mixture, Acetonitrile (ACN), 15° C., read-out: Solubility) was less than 1 mg/mL, the solubility at 48 h ([1]; organic solvent or mixture, Acetonitrile (ACN), 45° C., read-out: Solubility) was 1 mg/mL (≈ 2.14 mM) and the solubility at 48 h ([1]; organic solvent or mixture, DCM, temperature not stated, read-out: Solubility (less soluble)) was less than 1 mg/mL. It also gave a solubility at 48 h ([1]; organic solvent or mixture, DMA, temperature not stated, read-out: Solubility (freely soluble)) greater than 100 mg/mL, a solubility at 48 h ([1]; organic solvent or mixture, Dimethylacetamide (DMA), 15° C., read-out: Solubility) greater than 100 mg/mL and a solubility at 48 h ([1]; organic solvent or mixture, Dimethylacetamide (DMA), 45° C., read-out: Solubility) greater than 100 mg/mL. It also gave a solubility at 48 h ([1]; organic solvent or mixture, EtOAc, temperature not stated, read-out: Solubility (less soluble)) of less than 1 mg/mL, a solubility at 48 h ([1]; organic solvent or mixture, EtOH, temperature not stated, read-out: Solubility (moderately soluble)) of 10 to 55 mg/mL (≈ 21.4 to 118 mM) and a solubility at 48 h ([1]; organic solvent or mixture, EtOH:H2O (95:5), 15° C., read-out: Solubility) of 18 mg/mL (≈ 38.5 mM). For the same compound, the solubility at 48 h ([1]; organic solvent or mixture, EtOH:H2O (95:5), 45° C., read-out: Solubility) was 53 mg/mL (≈ 113 mM), the solubility at 48 h ([1]; organic solvent or mixture, Ethanol (EtOH), 15° C., read-out: Solubility) was 11 mg/mL (≈ 23.5 mM) and the solubility at 48 h ([1]; organic solvent or mixture, Ethanol (EtOH), 45° C., read-out: Solubility) was 39 mg/mL (≈ 83.3 mM). For the same compound, the solubility at 48 h ([1]; organic solvent or mixture, Ethyl acetate (EtOAc), 15° C., read-out: Solubility) was less than 1 mg/mL, the solubility at 48 h ([1]; organic solvent or mixture, Ethyl acetate (EtOAc), 45° C., read-out: Solubility) was 1 mg/mL (≈ 2.14 mM) and the solubility at 48 h ([1]; organic solvent or mixture, Heptane (HEP), 15° C., read-out: Solubility) was less than 1 mg/mL. It also gave a solubility at 48 h ([1]; organic solvent or mixture, Heptane (HEP), 45° C., read-out: Solubility) of less than 1 mg/mL, a solubility at 48 h ([1]; organic solvent or mixture, IPA, temperature not stated, read-out: Solubility (slightly soluble)) of roughly 2 mg/mL (≈ 4.27 mM) and a solubility at 48 h ([1]; organic solvent or mixture, Isopropanol (IPA), 15° C., read-out: Solubility) of 1 mg/mL (≈ 2.14 mM). It also gave a solubility at 48 h ([1]; organic solvent or mixture, Isopropanol (IPA), 45° C., read-out: Solubility) of 12 mg/mL (≈ 25.6 mM), a solubility at 48 h ([1]; organic solvent or mixture, MeOH, temperature not stated, read-out: Solubility (freely soluble)) greater than 100 mg/mL and a solubility at 48 h ([1]; organic solvent or mixture, Methanol (MeOH), 15° C., read-out: Solubility) of 11 mg/mL (≈ 23.5 mM). The solubility at 48 h ([1]; organic solvent or mixture, Methanol (MeOH), 45° C., read-out: Solubility) was greater than 100 mg/mL, the solubility at 48 h ([1]; organic solvent or mixture, TBME, temperature not stated, read-out: Solubility (less soluble)) was less than 1 mg/mL and the solubility at 48 h ([1]; organic solvent or mixture, TFE, temperature not stated, read-out: Solubility (freely soluble)) was greater than 100 mg/mL. For the same compound, the solubility at 48 h ([1]; organic solvent or mixture, THF, temperature not stated, read-out: Solubility (moderately soluble)) was 10 to 55 mg/mL (≈ 21.4 to 118 mM), the solubility at 48 h ([1]; organic solvent or mixture, Tert-butyl methyl ether (TBME), 15° C., read-out: Solubility) was less than 1 mg/mL and the solubility at 48 h ([1]; organic solvent or mixture, Tert-butyl methyl ether (TBME), 45° C., read-out: Solubility) was 2 mg/mL (≈ 4.27 mM). The solubility at 48 h ([1]; organic solvent or mixture, Tetrahydrofuran (THF), 15° C., read-out: Solubility) was 13 mg/mL (≈ 27.8 mM), the solubility at 48 h ([1]; organic solvent or mixture, Tetrahydrofuran (THF), 45° C., read-out: Solubility) was 50 mg/mL (≈ 107 mM) and the solubility at 48 h ([1]; organic solvent or mixture, acetone, temperature not stated, read-out: Solubility (slightly soluble)) was roughly 2 mg/mL (≈ 4.27 mM). The solubility at 48 h ([1]; organic solvent or mixture, acetonitrile, temperature not stated, read-out: Solubility (less soluble)) was less than 1 mg/mL, the solubility at 48 h ([1]; organic solvent or mixture, heptane, temperature not stated, read-out: Solubility (less soluble)) was less than 1 mg/mL and the solubility at 48 h ([1]; Water (H2O), 15° C., read-out: Solubility) was less than 1 mg/mL. For the same compound, the solubility at 48 h ([1]; Water (H2O), 45° C., read-out: Solubility) was less than 1 mg/mL, the solubility at 48 h ([1]; water, temperature not stated, read-out: Solubility (less soluble)) was less than 1 mg/mL and the solubility at 48 h ([1]; trifluoroethanol (TFE), organic solvent or mixture, Trifluoro Ethanol (TFE), 15° C., read-out: Solubility) was greater than 100 mg/mL. For the same compound, the solubility at 48 h ([1]; trifluoroethanol (TFE), organic solvent or mixture, Trifluoro Ethanol (TFE), 45° C., read-out: Solubility) was greater than 100 mg/mL, the Hygroscopicity [2] was “low hygroscopicity” and the “Post DVS XRPD (crystalline form after DVS)” value ([2]; XRPD of the post-DVS sample) was “no change in the crystalline form; also recorded: Pattern A,”. For the same compound, the “XRPD pattern after drying at 45° C. (under vacuum)” value [3] was “Pattern A,”, the “Solid form stability under high humidity (XRPD)” value [4] was “stability of Form I up to seven days; also recorded: stable under high humidity up to a week” and the “Moisture uptake (DVS)” value [5] was “less than 0.2%”.
